# Data reported in paper PMC6008465 (British Journal of Cancer, 2018).
# Test system: patients with advanced solid tumours
# Assay: Phase 1 Part A (dose escalation): safety, DLT, MTD
# Assay type: in vivo, human
# Conditions: Part A
# Procedure: The primary objectives of this phase 1 study were to evaluate the safety, tolerability, and MTD of once-weekly (Schedule I) and twice-weekly (Schedule II) dosing. Secondary objectives included evaluation of the PK profile of E6201. […] Toxicity was managed by dose interruption, reduction, and/or discontinuation. Only Cycle 1 adverse events (AEs) were evaluable as DLTs. Based on AEs reported at 480 mg/m^2 and 400 mg/m^2, the protocol was amended to include up to 6 additional toxicity-evaluable patients at 320 mg/m^2, to confirm this as the MTD. All ongoing patients could continue at 320 mg/m^2, regardless of initial starting dose.
# Safety was assessed by monitoring AEs, serious AEs (SAEs), laboratory parameters, vital signs, 12-lead electrocardiograms (ECGs), Eastern Cooperative Oncology Group performance status, and symptom-directed physical and neurologic examination findings. AEs were graded by investigators based on the National Cancer Institute Common Terminology Criteria for Adverse Events, version 3.[16]
compound,measurement,setting,value
"CCNc1cc(O)c2c(c1)/C=C/C[C@H](O)[C@H](O)C(=O)/C=C\[C@@H](C)[C@H](C)OC2=O [E6201, (3S,4R,5Z,8S,9S,11E)-14-(ethylamino)-8,9,16-trihydroxy-3,4-dimethyl-3,4,9,19-tetrahydro-1H-2-benzoxacyclotetradecine-1,7 (8H)-dione]","Fatigue TEAE incidence, G≥3",320 mg/m^2 (n=7),1 (14.3) n (%)
same,"Hypokalemia TEAE incidence, All grades",320 mg/m^2 (n=7),2 (28.6) n (%)
same,"Hypokalemia TEAE incidence, G≥3",320 mg/m^2 (n=7),0 n (%)
same,"Nausea TEAE incidence, All grades",320 mg/m^2 (n=7),5 (71.4) n (%)
same,"Nausea TEAE incidence, G≥3",320 mg/m^2 (n=7),1 (14.3) n (%)
same,Patients with a DLT (QTcF increase from baseline > 60 ms) and grade 2 CNS toxicities,320 mg/m^2 (n=7),One
same,"Peripheral edema TEAE incidence, All grades",320 mg/m^2 (n=7),1 (14.3) n (%)
same,"Peripheral edema TEAE incidence, G≥3",320 mg/m^2 (n=7),1 (14.3) n (%)
same,"Vomiting TEAE incidence, All grades",320 mg/m^2 (n=7),4 (57.1) n (%)
same,"Vomiting TEAE incidence, G≥3",320 mg/m^2 (n=7),0 n (%)
same,Patients with grade 3 bradycardia (unrelated to E6201),320 mg/m^2 group,one
same,"Deaths (abnormal hepatic function, possibly related to E6201)","320 mg/m^2 group, post-Cycle 1",1 patient
same,Patients with CNS toxicity (grade 1 dizziness) treated conservatively as a DLT,400 mg/m^2,1 patient
same,"Abdominal pain TEAE incidence, All grades",400 mg/m^2 (n=1),0 n (%)
same,"Abdominal pain TEAE incidence, G≥3",400 mg/m^2 (n=1),0 n (%)
same,"Constipation TEAE incidence, All grades",400 mg/m^2 (n=1),0 n (%)
same,"Constipation TEAE incidence, G≥3",400 mg/m^2 (n=1),0 n (%)
same,"Decreased appetite TEAE incidence, All grades",400 mg/m^2 (n=1),0 n (%)
same,"Decreased appetite TEAE incidence, G≥3",400 mg/m^2 (n=1),0 n (%)
same,"Fatigue TEAE incidence, All grades",400 mg/m^2 (n=1),0 n (%)
same,"Fatigue TEAE incidence, G≥3",400 mg/m^2 (n=1),0 n (%)
same,"Hypokalemia TEAE incidence, All grades",400 mg/m^2 (n=1),1 (100) n (%)
same,"Hypokalemia TEAE incidence, G≥3",400 mg/m^2 (n=1),1 (100) n (%)
same,"Nausea TEAE incidence, All grades",400 mg/m^2 (n=1),0 n (%)
same,"Nausea TEAE incidence, G≥3",400 mg/m^2 (n=1),0 n (%)
same,"Peripheral edema TEAE incidence, All grades",400 mg/m^2 (n=1),0 n (%)
same,"Peripheral edema TEAE incidence, G≥3",400 mg/m^2 (n=1),0 n (%)
same,"Vomiting TEAE incidence, All grades",400 mg/m^2 (n=1),0 n (%)
same,"Vomiting TEAE incidence, G≥3",400 mg/m^2 (n=1),0 n (%)
same,"Abdominal pain TEAE incidence, All grades",480 mg/m^2 (n=4),1 (25.0) n (%)
same,"Abdominal pain TEAE incidence, G≥3",480 mg/m^2 (n=4),0 n (%)
same,"Constipation TEAE incidence, All grades",480 mg/m^2 (n=4),2 (50.0) n (%)
same,"Constipation TEAE incidence, G≥3",480 mg/m^2 (n=4),0 n (%)
same,"Decreased appetite TEAE incidence, All grades",480 mg/m^2 (n=4),1 (25.0) n (%)
same,"Decreased appetite TEAE incidence, G≥3",480 mg/m^2 (n=4),0 n (%)
same,"Fatigue TEAE incidence, All grades",480 mg/m^2 (n=4),2 (50.0) n (%)
same,"Fatigue TEAE incidence, G≥3",480 mg/m^2 (n=4),0 n (%)
same,"Hypokalemia TEAE incidence, All grades",480 mg/m^2 (n=4),2 (50.0) n (%)
same,"Hypokalemia TEAE incidence, G≥3",480 mg/m^2 (n=4),0 n (%)
same,"Nausea TEAE incidence, All grades",480 mg/m^2 (n=4),1 (25.0) n (%)
same,"Nausea TEAE incidence, G≥3",480 mg/m^2 (n=4),0 n (%)
same,"Peripheral edema TEAE incidence, All grades",480 mg/m^2 (n=4),0 n (%)
same,"Peripheral edema TEAE incidence, G≥3",480 mg/m^2 (n=4),0 n (%)
same,"Vomiting TEAE incidence, All grades",480 mg/m^2 (n=4),1 (25.0) n (%)
same,"Vomiting TEAE incidence, G≥3",480 mg/m^2 (n=4),0 n (%)
same,"QTcF prolongation to >500 ms, patients","480 mg/m^2, Cycle 2",one
same,Patients with DLTs,"480 mg/m^2, QTcF > 500 ms, grade 4 confusion, QTcF increase > 60 ms",3 patients
same,"Grade 3/4 ECG QT prolonged, patients",2 patients,8.0%
same,"Grade 3/4 abdominal pain, patients",2 patients,8.0%
same,"Grade 3/4 hyperbilirubinemia, patients",2 patients,8.0%
same,"Grade 3/4 syncope, patients",2 patients,8.0%
same,"Treatment-emergent SAEs other than death, patients",8 patients,32.0%
same,"Grade 3/4 TEAEs, patients",11 patients,44.0%
same,"QT prolongation reported as an AE (Grade 2/3, DLT, probably related), patients","30-min infusion, three patients",12.0%
same,Patients with ≥1 TEAE assessed as treatment-related,Eleven patients,44.0%
same,"Abdominal pain TEAE incidence, All grades",Total (N=25),6 (24.0) n (%)
same,"Abdominal pain TEAE incidence, G≥3",Total (N=25),2 (8.0) n (%)
same,"Constipation TEAE incidence, All grades",Total (N=25),7 (28.0) n (%)
same,"Constipation TEAE incidence, G≥3",Total (N=25),0 n (%)
same,"Decreased appetite TEAE incidence, All grades",Total (N=25),5 (20.0) n (%)
same,"Decreased appetite TEAE incidence, G≥3",Total (N=25),1 (4.0) n (%)
same,"Fatigue TEAE incidence, All grades",Total (N=25),7 (28.0) n (%)
same,"Fatigue TEAE incidence, G≥3",Total (N=25),1 (4.0) n (%)
same,"Hypokalemia TEAE incidence, All grades",Total (N=25),7 (28.0) n (%)
same,"Hypokalemia TEAE incidence, G≥3",Total (N=25),1 (4.0) n (%)
same,"Nausea TEAE incidence, All grades",Total (N=25),9 (36.0) n (%)
same,"Nausea TEAE incidence, G≥3",Total (N=25),1 (4.0) n (%)
same,"Peripheral edema TEAE incidence, All grades",Total (N=25),4 (16.0) n (%)
same,"Peripheral edema TEAE incidence, G≥3",Total (N=25),1 (4.0) n (%)
same,"Vomiting TEAE incidence, All grades",Total (N=25),7 (28.0) n (%)
same,"Vomiting TEAE incidence, G≥3",Total (N=25),0 n (%)
same,"QTcF increase of 30–60 ms from baseline, patients",five patients,20.0%
same,"QTcF prolongation to 450–500 ms, patients",five patients across dose groups,20.0%
same,"QTcF increase of >60 ms from baseline, patients",two patients,8.0%
same,Maximum-tolerated dose (MTD),30-min IV infusion once-weekly for 3 weeks of a 28-day cycle,320 mg/m^2
